For one assay, the system named is KPM lung tumors. Put plainly: Lung tumor burden in hypermutant KPM mouse model of NSCLC. As to conditions: KPM mice, 0.5 mg/kg/day in drinking water for 4 weeks. Type of assay: in vivo. From the text:
A genetically engineered mouse model of non-small cell lung cancer (NSCLC) was used. Mice harboring a Cre-recombinase inducible oncogenic Kras, and a floxed p53 allele (KP) develop tumors following intratracheal administration of Cre recombinase. In addition, a hypermutant mouse model of NSCLC (KPM) was used in which mice have a floxed allele of the MutS homolog 2 (Msh2) gene, a critical component of DNA mismatch repair, in addition to the genetic modifications of the KP mouse model. These models enable the interrogation of Hsp90i strategies in a physiologically relevant NSCLC model with and without hypermutation.
KP and KPM mice were infected intratracheally with Adenovirus expressing Cre recombinase from an SPC promoter at a titer of 2×10^8 plaque forming units per mouse to initiate tumor formation. 8 weeks following tumor initiation, the cohort was randomized and vehicle (control) or Hsp90i (NVP-HSP990) was administered in the drinking water at a dose of 0.5 mg/kg/day for 4 weeks prior to analysis at 12 weeks post tumor induction.
Tumor burden was analyzed histologically on tumor sections stained with hemotoxylin and eosin (H&E) using standard protocols at the Koch Institute Histology Facility. Tumor burden was calculated by dividing the total area of tumor tissue over the total area of normal lung tissue present in each sample.

Assay [1] deals with MC38 cells. Put plainly: Immunoblot analysis of MC38 cells. The assay is classed as cell-based, mouse. Here is the method: Protein extraction was performed by washing cells 2× with PBS. A volume of lysis buffer (50 mM Tris pH 7.5, 150 mM NaCl, 1 mM EDTA, 1% Triton-X100, 0.1% SDS, 1× Halt Protease/Phosphatase inhibitor) equal to 1/10 the culture media volume was added directly to the culture dish and incubated for 2-3 min on ice. Lysates were then thoroughly scraped and pipetted into 1.5 mL tubes and incubated for an additional 30 min on ice. Lysates were then cleared by centrifugation at 14,000×g for 15 min and quantified using BCA Assay. Lysates were separated by SDS-PAGE and transferred to 0.2 μm nitrocellulose membranes prior to washing with PBST, blocking with 5% milk in PBST, and incubation with primary antibody overnight at 4° C. All primary antibodies were diluted 1:1000 in 2.5% milk in PBST. Membranes were then washed 4×5 min with PBST and incubated with HRP conjugated secondary antibody at a 1:10,000 dilution in 2.5% milk in PBST, and washed again 4×5 min with PBST. Detection of secondary antibody was performed with SuperSignal West Pico or Femto ECL reagents (Pierce) and digitally imaged on a ChemiDoc (BioRad).
Immunoblotting was performed as described in Example 4. Briefly, protein extraction was performed by washing cells with PBS and then isolating whole cell lysates in lysis buffer (50 mM Tris pH 7.5, 150 mM NaCl, 1 mM EDTA, 1% Triton-X100, 0.1% SDS, 1× Halt Protease/Phosphatase inhibitor) Lysates were then cleared by centrifugation and quantified using BCA Assay. Lysates were separated by SDS-PAGE and transferred to 0.2 μm nitrocellulose membranes prior to washing with PBST, blocking with 5% milk in PBST, and incubation with primary antibody overnight at 4° C. All primary antibodies were diluted 1:1000 in 2.5% milk in PBST. Membranes were then washed and incubated with HRP conjugated secondary antibody. Detection of secondary antibody was performed with SuperSignal West Pico or Femto ECL reagents (Pierce) and digitally imaged on a ChemiDoc (BioRad).
For orientation: A western blot detects proteins with antibodies after separation by electrophoresis.

In assay [2] the test system is MC38 cells. Put plainly: MHC Class I peptide profiling of MC38 cells by immunoprecipitation and mass spectrometry. Type of assay: cell-based, mouse. On the procedure:
MC38 cells were cultured as described above. 10-10 cm (˜1×10^8 cells) plates of MC38 cells were cultured for 72 hours in 0.1% DMSO or 50 nM HSP990. At the time of harvest, plates were washed 1× in PBS, and then cells were lifted using PBS+2 mM EDTA. Cells were then pelleted at 500 g for 5 min and the pellets washed twice more with ice cold PBS. Pellets were then resuspended in 1 mL IP lysis buffer ([…] Tris pH 7.5, 150 mM NaCl, 1% CHAPS, 0.2 mM PMSF, 1× HALT protease/phosphatase inhibitors (Pierce). Lysates were then sonicated with a microtip sonicator for 3×10 s pulses to further disrupt cell membranes, and then centrifuged at 14 k g for 10 min. The supernatant was then quantified at 10 mg total protein lysate was used for the MHC Class IIP.
Peptide MHC isolation was performed using a modified immunoprecipitation and protein filtration protocol, as previously described. […]
Peptides were eluted using a 130 minute gradient with 10-45% buffer B (70% Acetonitrile, 0.2M acetic acid) from 5-100 minutes and 45-55% from 100-120 minutes at a flow rate of 0.2 mL/min for a flow split of approximately 10,000:1. Peptides were analyzed using a Thermo Q Exactive HF-X Hybrid Quadrupole-Orbitrap mass spectrometer. […] Full-scan mass spectrometry spectra [mass/charge ratio (m/z), 350 to 2,000; resolution, 60,000] were detected in the Orbitrap analyzer after accumulation of ions at 3e6 target value. […]

On to `COc1cccc(-c2cc(F)ccc2[C@H]2Cc3nc(N)nc(C)c3C(=O)N2)n1` [NVP-HSP990], for which the “lung tumor burden versus control” value with KPM lung tumors is listed as “significantly reduced the lung tumor burden”. In addition, in the assay on MC38 cells [1] (72 hours), the Psmb5 protein levels result is listed as “slightly decreased Psmb5 levels” and the Psmb8 protein levels entry was “increased the protein levels of Psmb8”. Also, the “expression of downstream markers of IFN-γ signaling (Stat1, Stat3, pStat3, PD-L1)” value in the assay on MC38 cells [1] (Hsp90i 60 nM or IFN-γ 10 ng/mL) is reported as “minimal to undetectable effect”. For the same compound, the “MHC-I peptide repertoire compared to IFNγ” value in the assay with MC38 cells [2] was “induced a distinct repertoire of MHC-I peptides”. Moreover, the “number of unique MHC Class I peptides identified” value in the assay with MC38 cells [2] (50 nM HSP990, 72 hours, 557 from vehicle-treated cells) was determined as 1005.
